Measured values taken from patent US20250122219A1 (priority 2023, published 2025).
Converted amounts (≈) assume the structure as drawn. Like-named read-outs stand apart in the source and are kept apart here.

Experiments:
[1] = Cytotoxicity assay in MT-4 cells; assay type: cell-based; conditions: human; uninfected MT-4 cells, 5 days incubation, Cell Titer Glo; read-out: MT4 CC50
How it was run: (§1)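 Uninfected MT-4 cells exposed to serially diluted compounds in RPMI with 10% FBS for 5 days at 37 °C. Viability by Cell Titer Glo chemiluminescence. Puromycin […] as baseline cytotoxicity control.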

HIV-1 (IIIB) = experiment: Antiviral assay in MT-4 cells; assay type: cell-based
How it was run: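 HIV-1 IIIB-infected MT-4 cells (fresh 1:250 virus stock dilution; mock-infected controls) incubated 5 days at 37 °C with serially diluted compounds in RPMI/10% FBS; 5 μM AZT as positive control. Cell viability read by CellTiter-Glo luminescence as measure of protection from viral replication.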

physchem = assay type: physicochemical; conditions: ambient temperature, 5 mg/mL dose concentration; for solubility thermodynamic at 24 h / solubility thermodynamic: 23 °C, thermodynamic from solid; for solubility thermodynamic at 24 h: FaSSIF; for solubility thermodynamic: aqueous buffer; for solubility thermodynamic / Thermodynamic PBS Solubility (mg/mL): PBS
Method: Approximately 7 mg of each test compound as a dry powder was placed in a vial. Aliquots were weighed out for each assay media at 2 hour and 24 hour time points, to be analyzed. The appropriate buffer (FaSSIF or PBS) was added to each vial such that the final dose concentration of 5 mg/mL was achieved. […] The plate was sealed with a pierceable heat seal and analyzed by HPLC-UV.
A system QC (0.01 mg/mL Caffeine in DMSO) was injected every 12-15 injections. […] Results are reported using data obtained at 280 nm. The resulting peak areas were plotted against the known concentrations from the calibration and the filtrates are quantified with respect to the linear regression using Agilent OpenLab Intelligent Reporting Software. The results are reported electronically in mg/mL.

MT-4 cells = experiment: Cytotoxicity assay in MT-4 cells; assay type: cell-based; conditions: uninfected MT-4 cells, 5 days incubation, Cell Titer Glo; read-out: MT4 CC50
How it was run: as §1

[2] = Human immunodeficiency virus 1, MT4, 120 h, HIV-1 IIIB in MT-4 cells, 5 days incubation, Cell Titer Glo, read-out: MT4 EC50

Row | SMILES | CC50 at 5 days [1] | EC50 (HIV-1 (IIIB); [2]) | solubility thermodynamic at 24 h (physchem) | solubility thermodynamic (physchem) | EC50 (HIV-1 (IIIB); Human immunodeficiency virus 1, IIIB, MT4, 120 h, read-out: MT4 EC50 (nM)) | CC50 (MT-4 cells) | EC50 (HIV-1 (IIIB); HIV-1 IIIB in MT-4 cells, 5 days incubation, Cell Titer Glo, read-out: MT4 EC50) | Thermodynamic PBS Solubility (mg/mL) (physchem)
1 | CC1=NO[C@@]2(CC[C@H](C)N3C[C@H]2n2cc(C(=O)NCc4ccc(F)cc4F)c(=O)c(O[C@H](C)OC(=O)OC(C)C)c2C3=O)C1 (single isomer, unassigned) [Example 20] | 35 µM | 11.5 nM | 70 µg/mL (≈ 114 µM) |  |  |  |  | 
2 | CC1=NO[C@@]2(CC[C@H](C)N3C[C@H]2n2cc(C(=O)NCc4ccc(F)cc4F)c(=O)c(O[C@@H](C)OC(=O)OC(C)C)c2C3=O)C1 (single isomer, unassigned) [Example 21] | ≥ 50 µM | 26.4 nM | 150 µg/mL (≈ 243 µM) |  |  |  |  | 
3 | COCCOCCOCCOC(=O)Oc1c2n(cc(C(=O)NCc3ccc(F)cc3F)c1=O)[C@@H]1CN(C2=O)[C@@H](C)CC[C@]12CC(OC)=NO2 [Example 3, (3′S,5S,7′R)-10′-((2,4-difluorobenzyl)carbamoyl)-3-methoxy-3′-methyl-1′,11′-dioxo-1′,4′,5′,11′-tetrahydro-3′H,4H,7′H-spiro[isoxazole-5,6′-[2,7]methanopyrido[1,2-a][1,4]diazonin]-12′-yl (2-(2-(2-methoxyethoxy)ethoxy)ethyl) carbonate] | 16.3 µM | 1.06 nM | 470 µg/mL (≈ 679 µM) |  |  |  |  | 
4 | COCCOC(=O)OCOc1c2n(cc(C(=O)NCc3ccc(F)cc3F)c1=O)[C@@H]1CN(C2=O)[C@@H](C)CC[C@]12CC(OC)=NO2 [Example 5, (((3′S,5S,7′R)-10′-((2,4-difluorobenzyl)carbamoyl)-3-methoxy-3′-methyl-1′,11′-dioxo-1′,4′,5′,11′-tetrahydro-3′H,4H,7′H-spiro[isoxazole-5,6′-[2,7]methanopyrido[1,2-a][1,4]diazonin]-12′-yl)oxy)methyl (2-methoxyethyl) carbonate] | 39.8 µM | 4.08 nM | 168 µg/mL (≈ 265 µM) | 39 µg/mL (≈ 61.5 µM) |  |  |  | 
5 | COCCOCCOC(=O)Oc1c2n(cc(C(=O)NCc3ccc(F)cc3F)c1=O)[C@@H]1CN(C2=O)[C@@H](C)CC[C@]12CC(C)=NO2 [Example 8, (3′S,5S,7′R)-10′-((2,4-difluorobenzyl)carbamoyl)-3,3′-dimethyl-1′,11′-dioxo-1′,4′,5′,11′-tetrahydro-3′H,4H,7′H-spiro[isoxazole-5,6′-[2,7]methanopyrido[1,2-a][1,4]diazonin]-12′-yl (2-(2-methoxyethoxy)ethyl) carbonate] | 11.7 µM |  | 486 µg/mL (≈ 768 µM) |  | 0.632 nM |  |  | 
6 | COCCOC(=O)OCOc1c2n(cc(C(=O)NCc3ccc(F)cc3F)c1=O)[C@@H]1CN(C2=O)[C@@H](C)CC[C@]12CC(C)=NO2 [Example 10, (((3′S,5S,7′R)-10′-((2,4-difluorobenzyl)carbamoyl)-3,3′-dimethyl-1′,11′-dioxo-1′,4′,5′,11′-tetrahydro-3′H,4H,7′H-spiro[isoxazole-5,6′-[2,7]methanopyrido[1,2-a][1,4]diazonin]-12′-yl)oxy)methyl (2-methoxyethyl) carbonate] | 31.7 µM | 6.4 nM | 35 µg/mL (≈ 56.6 µM) | 15 µg/mL (≈ 24.2 µM) |  |  |  | 
7 | COC(=O)OCOc1c2n(cc(C(=O)NCc3ccc(F)cc3F)c1=O)[C@@H]1CN(C2=O)[C@@H](C)CC[C@]12CC(OC)=NO2 [Example 11, (((3′S,5S,7′R)-10′-((2,4-difluorobenzyl)carbamoyl)-3-methoxy-3′-methyl-1′,11′-dioxo-1′,4′,5′,11′-tetrahydro-3′H,4H,7′H-spiro[isoxazole-5,6′-[2,7]methanopyrido[1,2-a][1,4]diazonin]-12-yl)oxy)methyl methyl carbonate] |  |  |  |  |  | 36.8 µM | 8.34 nM | 
8 | COC(=O)OCOc1c2n(cc(C(=O)NCc3ccc(F)cc3F)c1=O)[C@@H]1CN(C2=O)[C@@H](C)CC[C@]12CC(C)=NO2 [Example 12, (((3′S,5S,7′R)-10′-((2,4-difluorobenzyl)carbamoyl)-3,3′-dimethyl-1′,11′-dioxo-1′,4′,5′,11′-tetrahydro-3′H,4H,7′H-spiro[isoxazole-5,6′-[2,7]methanopyrido[1,2-a][1,4]diazonin]-12′-yl)oxy)methyl methyl carbonate] | 25.9 µM | 3.81 nM | 30 µg/mL (≈ 52.2 µM) |  |  |  |  | 
9 | CCCCCCCCCCCCCCCCCC(=O)Oc1c2n(cc(C(=O)NCc3ccc(F)cc3F)c1=O)[C@@H]1CN(C2=O)[C@@H](C)CC[C@]12CC(C)=NO2 [Example 15, (3′S,5S,7′R)-10′-((2,4-difluorobenzyl)carbamoyl)-3,3′-dimethyl-1′,11′-dioxo-1′,4′,5′,11′-tetrahydro-3′H,4H,7′H-spiro[isoxazole-5,6′-[2,7]methanopyrido[1,2-a][1,4]diazonin]-12′-yl stearate] | ≥ 50 µM | 6.36 nM |  |  |  |  |  | <LOD
10 | CC(=O)Oc1c2n(cc(C(=O)NCc3ccc(F)cc3F)c1=O)[C@@H]1CN(C2=O)[C@@H](C)CC[C@]12CC(C)=NO2 [Example 16, (3′S,5S,7′R)-10′-((2,4-difluorobenzyl)carbamoyl)-3,3′-dimethyl-1′,11′-dioxo-1′,4′,5′,11′-tetrahydro-3′H,4H,7′H-spiro[isoxazole-5,6′-[2,7]methanopyrido[1,2-a][1,4]diazonin]-12′-yl acetate] | 11.2 µM | 1.3 nM | 270 µg/mL | 372 µg/mL |  |  |  | 
11 | CCCCC(=O)Oc1c2n(cc(C(=O)NCc3ccc(F)cc3F)c1=O)[C@@H]1CN(C2=O)[C@@H](C)CC[C@]12CC(C)=NO2 [Example 17, (3′S,5S,7′R)-10′-((2,4-difluorobenzyl)carbamoyl)-3,3′-dimethyl-1′,11′-dioxo-1′,4′,5′,11′-tetrahydro-3′H,4H,7′H-spiro[isoxazole-5,6′-[2,7]methanopyrido[1,2-a][1,4]diazonin]-12′-yl pentanoate] | 10.2 µM | 1.28 nM |  |  |  |  |  | <LOD
12 | CC1=NO[C@@]2(CC[C@H](C)N3C[C@H]2n2cc(C(=O)NCc4ccc(F)cc4F)c(=O)c(OC(=O)C(C)(C)C)c2C3=O)C1 [Example 19, (3′S,5S,7′R)-10′-((2,4-difluorobenzyl)carbamoyl)-3,3′-dimethyl-1′,11′-dioxo-1′,4′,5′,11′-tetrahydro-3′H,4H,7′H-spiro[isoxazole-5,6′-[2,7]methanopyrido[1,2-a][1,4]diazonin]-12′-yl pivalate] | 12.3 µM | 1.53 nM | 83 µg/mL (≈ 145 µM) |  |  |  |  | 
13 | CC1=NO[C@@]2(CC[C@H](C)N3C[C@H]2n2cc(C(=O)NCc4ccc(F)cc4F)c(=O)c(OC(=O)OC(C)C)c2C3=O)C1 [Example 22, (3′S,5S,7′R)-10′-((2,4-difluorobenzyl)carbamoyl)-3,3′-dimethyl-1′,11′-dioxo-1′,4′,5′,11′-tetrahydro-3′H,4H,7′H-spiro[isoxazole-5,6′-[2,7]methanopyrido[1,2-a][1,4]diazonin]-12′-yl isopropyl carbonate] | 12.5 µM | 0.992 nM | 70 µg/mL (≈ 122 µM) | 34 µg/mL (≈ 59.4 µM) |  |  |  | 
14 | CC1=NO[C@@]2(CC[C@H](C)N3C[C@H]2n2cc(C(=O)NCc4ccc(F)cc4F)c(=O)c(OCOC(=O)OC(C)C)c2C3=O)C1 [Example 24, (((3′S,5S,7′R)-10′-((2,4-difluorobenzyl)carbamoyl)-3,3′-dimethyl-1′,11′-dioxo-1′,4′,5′,11′-tetrahydro-3′H,4H,7′H-spiro[isoxazole-5,6′-[2,7]methanopyrido[1,2-a][1,4]diazonin]-12′-yl)oxy)methyl isopropyl carbonate] | 31.7 µM | 5.17 nM | 8 µg/mL (≈ 13.3 µM) |  |  |  |  | 
15 | COC[C@@H](C)OC(=O)OCOc1c2n(cc(C(=O)NCc3ccc(F)cc3F)c1=O)[C@@H]1CN(C2=O)[C@@H](C)CC[C@]12CC(OC)=NO2 [Example 214, (((3′S,5S,7′R)-10′-((2,4-difluorobenzyl)carbamoyl)-3-methoxy-3′-methyl-1′,11′-dioxo-1′,4′,5′,11′-tetrahydro-3′H,4H,7′H-spiro[isoxazole-5,6′-[2,7]methanopyrido[1,2-a][1,4]diazonin]-12′-yl)oxy)methyl ((R)-1-methoxypropan-2-yl) carbonate] | ≥ 50 µM | 6.25 nM |  |  |  |  |  | 
16 | COC1=NO[C@@]2(CC[C@H](C)N3C[C@H]2n2cc(C(=O)NCc4ccc(F)cc4F)c(=O)c(OCOC(=O)OC[C@@H](C)OC)c2C3=O)C1 [Example 218, (((3′S,5S,7′R)-10′-((2,4-difluorobenzyl)carbamoyl)-3-methoxy-3′-methyl-1′,11′-dioxo-1′,4′,5′,11′-tetrahydro-3′H,4H,7′H-spiro[isoxazole-5,6′-[2,7]methanopyrido[1,2-a][1,4]diazonin]-12′-yl)oxy)methyl ((R)-2-methoxypropyl) carbonate] | 32.5 µM | 3.09 nM |  |  |  |  |  | 
